Consider 1 compound from patent US11396531B2, “Antimicrobial peptides comprising epsilon lysine residues” (priority 2016, dated 2022).

Read-outs that look alike come from different tables or passages of the source.

One data set relates to red blood cells. The note with it: cited from earlier work.
Data set [1] relates to a number of micro-organisms. The following applies: cited from earlier work.
In the next data set the test system is VRE 1002. Put plainly: SYTOX green (SG) uptake assay and bacterial viability. Type of data set: cell-based, Enterococcus. The protocol: To discern the pore-forming ability of modified peptide in comparison with melittin, the SYTOX green (SG) uptake assay was performed upon exposure of the peptides and their bactericidal properties were determined. […] Therefore the fluorescence intensity is taken to be proportional to the degree of cell membrane disruption caused by test peptides.

The test system of the next data set is S. aureus or MRSA. Type of data set: cell-based, Staphylococcus aureus. The note with it: Table 4, range over 5 strains. As to the method:
MIC of cationic polymers and polypeptide were tested in accordance with the Clinical and Laboratory Standards Institute (CLSI) guidelines against a panel of antibiotic-susceptible/-resistant bacteria, yeasts and fungal strains. Bacterial and yeast strains were cultured on tryptic soy agar (TSA) and Sabaroud dextrose agar (SDA) plates (Neogen Corporation, MI, USA) overnight respectively. Inocula in Mueller-Hinton broth (MHB) for bacteria and SD broth for C. albicans (Beckton Dickinson, MD, USA) were prepared at 0.5 McFarland. The suspensions were then diluted to a final concentration of 10^5 CFU/ml in a 96-well microtitre plate (SPL Life Sciences Co., Ltd, Korea). Polymers and polypeptides were added to the inoculum in 2-fold serial dilutions to give a range of concentrations from 2-1024 μg/ml. […] The antimicrobial activities were compared with topical antiseptic agents, BAK and CHX. A similar protocol was used to determine the MIC of εPL against antibiotic-resistant pathogens. MIC of the polymers and polypeptides against Fusarium strains was determined in full strength RPMI-1640 buffer. Fungal spores were recovered from a 5-day old culture on a potato dextrose agar and diluted to a concentration of 10^5 spores/ml in 0.9% saline solution. A further 50-fold dilution was done in RPMI-1640 buffer and 100 μl of the inoculum was added to 96 well plates containing an equal volume of test peptides at 2-fold serial dilutions. 200 μl of inoculum without any additives and buffer alone served as positive and negative controls, respectively. The plate was then incubated at 30° C. for 48 h. The absorbance value was measured at 600 nm as before and the lowest concentration of the peptide which inhibited 90% growth was reported. All MIC determinations were performed in duplicates.
MICs of polymers/antibiotics were determined using the microdilution method in 96 well microtitre plates (SPL Life Sciences Co., Ltd, Korea), following the guidelines of Clinical and Laboratory Standards Institute (CLSI) document M100-S18. Briefly, polymers (1-512 μg/ml) or antibiotics were dissolved in appropriate media (Mueller Hinton broth, MHB for bacteria; Sabaroud's Dextrose (SD) broth for yeasts and RPMI buffer for Fusarium strains) and 100 μl of this was then mixed with an equal volume of microbial inoculum (OD600=˜0.08) in the same media and shaken in a closed incubator.

Data set [2] can be described thus: Calcein dye leakage from mammalian model LUVs. The following applies: peptide:lipid ratio 0.0625. As to the method: To obtain an insight into the mechanism of membrane discrimination, large unilamellar vesicles (LUVs) which mimic the cytoplasmic membrane of mammalian (PC/Cholesterol) and microbial (PE:PG) cells were used. […] More dramatic results were observed when the experiments were carried out on PC/Cholesterol LUVs.

For data set [3], the system named is primary human dermal fibroblasts (HDFs). Put plainly: MTS cytotoxicity assay. As to the method:
MTS ((3-(4,5-dimethylthiazol-2-yl)-5-(3-carboxymethoxyphenyl)-2-(4-sulfophenyl)-2H-tetrazolium)) assay and high content analysis (HCA) were performed to elucidate the effect of various polymers on metabolic activity and morphological parameters of cultured human dermal fibroblasts (hDF), respectively as described previously. The antineoplastic agent, nocodazole (5 μg/ml), served as the […] control whereas cells treated with PBS served as positive control. The average values from three independent triplicate experiments are reported. Cells were cultured in 96-well plates and scanned (16 randomly selected fields/well) using an automated microscope IN Cell Analyzer 2200 (GE Healthcare). The multi-parametric cytotoxicity bio-application module of the IN Cell Investigator software (GE Healthcare) was used in quantitative estimations and morphotypic analysis of acquired images, which were automatically converted into color-coded heatmaps using Spotrfire® software.
Human dermal fibroblast cells were seeded in 96-well plates (2×10^3 cells/well) and incubated for 24 h at 37° C. and 5% CO2. Cells were then treated with various concentrations of polymers or peptides (62.5 μg/ml-1 mg/ml. At the end of the treatment period (after 24 h), 20 or 50 μl of MTS tetrazolium solution was added into 96-well or 12-well plates and further incubated for 2 h at 37° C. Subsequently, the absorbance was measured at 490 nm using a microplate reader (Infinite M200 Pro, Tecan, Switzerland) and the relative cell viability was calculated. Each treatment was performed in two triplicates and reported.
The cytotoxicity of peptides and polymers were determined using CellTier 96® Aqueous One solution cell proliferation assay kit according to the manufacturer's instruction (Promega Corporation, Madison, Wis.). This assay evaluates mitochondrial function by measuring ability of viable cells to reduce MTS ((3-(4,5-dimethylthiazol-2-yl)-5-(3-carboxymethoxyphenyl)-2-(4-sulfophenyl)-2H-tetrazolium)) into a quantifiable […] formazan product. HDFs were seeded in 96-well plates (2×10^3 cells/well) and incubated for 24 h at 37° C. and 5% CO2. Cells were then treated with a concentrated stock solution of polymers (final concentration 62.5-2000 μg/ml in the well) or peptides (final concentration 4-1000 μg/ml in the well). After 24 h, 20 μl of MTS tetrazolium solution was added into 96-well well plates and further incubated for 2 h at 37° C. Subsequently, the absorbance was measured at 490 nm using a microplate reader (Infinite M200 Pro, Tecan, Switzerland) and the relative cell viability was calculated relative to untreated control (10 mM PBS, pH 7.0). Each treatment was performed in two triplicates and reported.

As to `CC[C@H](C)[C@H](NC(=O)CN)C(=O)NCC(=O)N[C@@H](C)C(=O)N[C@H](C(=O)N[C@@H](CC(C)C)C(=O)N[C@@H](CCCCN)C(=O)N[C@H](C(=O)N[C@@H](CC(C)C)C(=O)N[C@H](C(=O)N[C@H](C(=O)NCC(=O)N[C@@H](CC(C)C)C(=O)N1CCC[C@H]1C(=O)N[C@@H](C)C(=O)N[C@@H](CC(C)C)C(=O)N[C@H](C(=O)N[C@@H](CO)C(=O)N[C@@H](Cc1c[nH]c2ccccc12)C(=O)N[C@H](C(=O)N[C@@H](CCCCN)C(=O)N[C@@H](CCCNC(=N)N)C(=O)N[C@@H](CCCCN)C(=O)N[C@@H](CCCNC(=N)N)C(=O)N[C@@H](CCC(N)=O)C(=O)N[C@@H](CCC(N)=O)C(N)=O)[C@@H](C)CC)[C@@H](C)CC)[C@@H](C)O)[C@@H](C)O)C(C)C)C(C)C` [Melittin], the Haemolytic activity is listed as 100% at 4 μM with red blood cells (at 4 μM, reference 4); 50% at 5 μM in the data set on red blood cells (at 5 μM, reference 8); more than 80% at 10 μM in the data set with red blood cells (at 10 μM, reference 6). In addition, the “MIC (range against a number of micro-organisms)” value in data set [1] (at 1 - 4 × 10^5 CFU/mL, reference 4) is 0.2 - 3 μM at 1 -; in data set [1] (at 1 × 10^6 CFU/mL, reference 6), 0.5 - 8 μM at; in data set [1] (at 7.5 × 10^5 CFU/mL, reference 8) it was 3.9 - 31.3 μM at. Also, the SG uptake in the data set on VRE 1002 (VRE 1002, at 1×MIC) was 79.2%; in the data set on VRE 1002 (VRE 1002, at 2×MIC) it was 89.7%. For the same compound, the “MIC against S. aureus or MRSA (n = 5)” value against S. aureus or MRSA is 4 to 8 µg/mL. Also, the “dye leakage from PC/Cholesterol LUVs” value in data set [2] was approximately 70%. In addition, the “Cytotoxicity (in μg/ml) for HDFs” value in data set [3] (Concentration at which complete cytotoxicity was observed in MTS and HCA) came to 16 µg/mL. For the same compound, the “Cytotoxicity for primary human dermal fibroblasts” value in data set [3] (Table 5) stood at 16 µg/mL.
